# Experimental data reported in US12691102B2, “Composition for preventing or treating chronic kidney disease, comprising compound that induces expression of anti-aging gene klotho” (KLOTHO SCIENCES, priority 2021, dated 2026).
# How the values were obtained:
# klotho (KL) gene [1] = assay: Quantitative evaluation of klotho (KL) gene expression level using general PCR in RPTEC cells; format: cell-based, human; settings: 2.5 μM, 6 hours, FIG. 5
# Procedure: After RPTEC cells, which are epithelial cells of the proximal tubule of the human kidneys, were each treated with the compounds of Examples 7 to 10 at 2.5 μM for 6 hours, RNA was extracted from the cells, and cDNA was prepared from the extracted RNA using a Superscript II kit from Thermo Fisher Scientific, Inc., and then general PCR was performed.
# Information on the primers used in the experiment is as follows. • KL-F […] (SEQ ID NO: 1) • KL-R […] (SEQ ID NO: 2) • GAPDH-F […] (SEQ ID NO: 3) • GAPDH-R […] (SEQ ID NO: 4)
# The DNA amplified by PCR was confirmed by staining with ethidium bromide after electrophoresis on an agarose gel, and the amounts of DNA in the band were quantitatively compared using the SPEedyQuant program, and are illustrated in FIG. 5.
# klotho protein = assay: Klotho protein expression level in cisplatin-treated HK-2 cells; format: cell-based, human; settings: FIG. 7B
# Procedure: As in the protocol in FIG. 7A, a disease model was made by treating HK-2 cells (human renal cells) with cisplatin (20 μM), and then treated with a KS1 compound (Example 10) (3 μM). After 24 hours, the expression degree of the klotho protein was confirmed by obtaining the cells.
# [2] = tested on: human kidney-2 (HK2) cells; assay: Toxicity test (EZ-Cytox) in HK2 cells; format: cell-based; settings: 12.5 μM or 25 μM, 24 hours, FIG. 6
# Procedure: Cultured human kidney-2 (HK2) cells were treated with Comparative Example 1, Example 2 and Examples 9 to 10 at a concentration of 25 μM or 12.5 μM, and after 24 hours, cytotoxicity was measured using an EZ-Cytox kit.
# [3] = tested on: unilateral ureter obstruction model; assay: Unilateral ureter obstruction (UUO) model; format: in vivo; settings: mice, 20 mg/kg/day into the abdominal cavity
# Procedure: In a unilateral ureter obstruction model, 5-week-old male […] mice were used. After the right ureter was tied with a thread to create a unilateral ureter obstruction model, the KS1 compound (20 mg/kg/day) was injected into the abdominal cavity daily starting 24 hours later. After that, samples were collected by sacrificing the mice on days 7 and 14 and tested (FIG. 8A). H&E staining was performed to investigate changes in the nucleus and cytoplasm in the unilateral ureter obstruction model, and the results are illustrated in FIG. 9. […] In addition, Sirius Red staining was performed to investigate the change according to the progress of fibrosis in the unilateral ureter obstruction model. […] TUNEL staining was performed to investigate the degree of apoptosis in the unilateral ureter obstruction model.
# [4] = tested on: chronic kidney disease model; assay: Chronic kidney disease model (db/db mice, high protein diet); format: in vivo; settings: oral gavage daily 2, 10, 50 mg/kg
# Description: For the chronic kidney disease model, 20 db/m mice (10 5-week-old mice, 10 6-week-old mice) and 50 db/db mice (25 5-week-old mice and 25 6-week-old mice) were imported from Jackson Lab, USA, and after the adaptation period, the experiment was started (mouse model number JAX 000642-BKS.Cg-Dock7m+/+Leprdb/j5W/M Wildtype for Dock7m, BKS.Cg-Dock7m+/+Leprdb/j 5W/M Heterozygous for Dock7m). Each group was divided into set1 and set2 due to the large number of mice, with 5-week-old mice as set2, and the experiment was conducted one week later so that all mice were in the experiment from 6 weeks of age. After measuring the body weight, the mice were evenly distributed in each group and fed a normal diet (ND) and a high protein diet (HPD). After 3 weeks on the high protein diet, 2-hour urine samples were collected via a metabolic cage for analysis. […] After 12 weeks of drug administration, mice were sacrificed, and blood and organs were obtained for hematology and tissue analysis. Urine analysis was performed at SCL healthcare center, and blood analysis was performed using I-STAT cartridge (CHEM 8+).
# The animals were anesthetized with anesthetic and perfusion-fixed with fixative (Periodate-Lysine-2% paraformaldehyde) through the heart for 8 minutes. Additional fixation was performed at 4° C. for 16 hours or more in the same fixative. After undergoing a dehydration process through an alcohol series, the tissue slides were prepared by embedding in wax and then cutting to 5 μm. After the tissue was hydrated again through the hydration process, it was immersed in a citric acid solution of pH 6 and heated to retrieve the aldehyde-fixed protein. Endogenous peroxidase was then blocked by treatment with 1.7% H2O2 in methanol for 30 minutes, followed by treatment with 0.5% triton X-100 in PBS for 15 minutes to increase the penetration of the antibody. […] Using more than 100 photographs for each group, the expressed areas were quantified using a color image analyzer (TDI Scope Eye version 3.6 for windows; Olympus, Japan) (FIG. 14). […]
# [5] = tested on: promoter of the human klotho gene; assay: Luciferase expression experiment, human klotho promoter reporter (1.7 kbp or 240 bp) in RPTEC cells; format: cell-based; settings: 5 μM, 24 hours, promoter 1.7 kbp or 240 bp, among Comparative Examples 1 to 4, FIG. 1
# Procedure: (§1) In order to evaluate whether the klotho gene was expressed by the evaluation of luciferase activity, human renal proximal tubule epithelial cells (RPTECs) (ATCC CRL-4031), which are epithelial cells of the proximal tubule of the human kidneys, were purchased from Lonza, USA and used.
# (§2) For culturing, a Renal Epithelial Growth Medium (REGM™) Bullet kit, also manufactured by the same Lonza company, was used, and the cells were cultured under conditions of 37° C. and 5% CO2. As a plasmid for luciferase expression, a plasmid in which the promoter site of a human KL (klotho) gene was disposed to regulate the expression of a firefly luciferase gene was used.
# The plasmid was incorporated into cells using an X-treme GENE transfection reagent from Roche. The activity of luciferase expressed in cells was measured using a Dual-Luciferase reporter assay system manufactured by Promega. After the cultured cells were treated with each compound at an indicated concentration for 24 hours, the activity of luciferase was measured. It is indirectly shown that the expression of the klotho gene may be increased when the activity of luciferase is high. […]
# klotho (KL) gene [6] = assay: Quantitative evaluation of klotho (KL) gene expression level using real-time PCR in RPTEC cells; format: cell-based, human; settings: treated for 6 hours, FIG. 4
# Procedure: For RNA extraction from RPTEC cells, which are epithelial cells of the proximal tubule of the human kidneys, treated with the compounds of Comparative Example 1 and Examples 1 and 2 for 6 hours, an RNeasy kit from Qiagen Inc. was used. The results of preparing cDNA from extracted RNA using a Superscript II kit from Thermo Fisher Scientific, Inc. and performing the quantitative evaluation using Taqman Gene Expression assays from Applied Biosystems as a klotho (KL) gene-specific kit are illustrated in FIG. 4.
# [7] = tested on: promoter of the human klotho gene; assay: Luciferase expression experiment, reporter gene pHKP-luc (promoter up to -2.1 kb upstream of human klotho gene) in RPTECs; format: cell-based
# Procedure: as §1, §2
# The plasmid was incorporated into cells using an X-treme GENE transfection reagent from Roche. The activity of luciferase expressed in cells was measured using a Dual-Luciferase reporter assay system manufactured by Promega. After the cultured cells were treated with each compound at an indicated concentration for 24 hours, the activity of luciferase was measured. It is indirectly shown that the expression of the klotho gene may be increased when the activity of luciferase is high.
# The results of confirming the expression of a reporter gene by treating RPTECs, which are epithelial cells of the proximal tubule of the human kidneys, with Examples 1 to 6 at concentrations of 0.5, 1 and 5 μM and Comparative Example 1 at a concentration of 5 μM and using a reporter gene (pHKP-luc) including a promoter included up to −2.1 kb upstream of the human klotho gene are illustrated in FIGS. 2 and 3.
# [8] = RPTECs, Examples at 0.5, 1 and 5 μM, Comparative Example 1 at 5 μM, FIG. 2
compound,measurement,setting,value
"Fc1ccc(Nc2nc3ccccc3o2)cc1F [Example 10, N-(3,4-difluorophenyl)benzo[d]oxazol-2-amine]","expression level of the klotho (KL) gene, relative to the level of Comparative Example 1",klotho (KL) gene [1],about 10 times
same,expression of the klotho protein,"klotho protein; HK-2 cells, cisplatin (20 μM) disease model, then 3 μM compound, 24 hours",increased
same,improvement of toxicity compared to Comparative Example 1,[2],≥ 20%
same,"toxicity (cytotoxicity, EZ-Cytox)",[2],the least toxicity
same,renal hypertrophy (kidney size),[3]; FIG. 8B,no difference in size
same,"nuclear and cytoplasmic changes, tissue destruction (H&E staining)","[3]; one-week and two-week samples, FIG. 9",a large reduction in tissue destruction
same,klotho protein expression,"[3]; one-week sample, FIG. 12",increased
same,fibrosis (Sirius Red staining),"[3]; vs UUO model not treated, FIG. 10",fibrosis occurred less
same,apoptosis (TUNEL staining),"[3]; vs UUO model not treated, FIG. 11",remarkably reduced
same,MMP-9 protein expression level (inflammation marker),"[3]; week 1 and week 2, FIG. 13",remarkably reduced
same,"expression of klotho protein (immunohistochemistry, kidney)","[4]; 12 weeks, FIG. 14, 15",statistically significantly (p<0.05) increased
same,blood urea nitrogen (BUN),"[4]; 12 weeks, FIG. 17",statistically significant (p<0.05) decrease
same,microalbumin level in urine (in proportion to creatinine),[4]; FIG. 16,statistically significant (p<0.05) decrease
"O=C(Nc1ccccc1Cl)c1c[nH]c2ccccc12 [Comparative Example 1, N-(2-chlorophenyl)-1H-indole-3-carboxamide]",luciferase activity (klotho promoter reporter),[5],the highest
Cc1ccc2oc(Nc3ccc(Cl)c(Cl)c3)nc2c1 [Example 2],klotho (KL) gene mRNA expression level (real-time PCR),klotho (KL) gene [6],at a level similar to that of Comparative Example 1
same,expression of the reporter gene (pHKP-luc),"[7]; RPTEC cells, 5 μM, FIG. 3",at a level similar to that of Comparative Example 1
same,expression of the reporter gene (pHKP-luc),[7]; [8],at a level similar to that of Comparative Example 1
"O=C(Nc1nc2ccccc2o1)c1ccc([N+](=O)[O-])cc1Cl [Example 1, N-(benzo[d]oxazol-2-yl)-2-chloro-4-nitrobenzamide]",expression of the reporter gene (pHKP-luc),[7]; [8],at a level similar to that of Comparative Example 1
"N.N.[Cl][Pt][Cl] [cisplatin, reference compound]",expression of the klotho protein,klotho protein; HK-2 cells treated with cisplatin (20 μM) alone,decreased
